{
  "source": "paper PMC11407758",
  "about": "“Integrated stress response (ISR) activation and apoptosis through HRI kinase by PG3 and other p53 pathway-restoring cancer therapeutics” (Oncotarget, 2024)",
  "type_in_all_cases": "cell-based, human",
  "key": {"[1]": {"system": "GCN2, PKR, eIF2α, ATF4, CHOP in HT29 cells", "test": "Western blot, ISR kinases / eIF2α / ATF4 / CHOP", "conditions": "pre-treatment 2 hours, then ONC201 or PG3 for 24 hour", "experimental": "Figure 7 PG3 induces upregulation of ATF4 through ISR via HRI. (A) HT29 cells were treated with PG3, GSK2606414, TG and ONC201 respectively, or co-treatment with PG3/GSK2606414, PG3/TG, and PG3/ONC201 for 15 h. (B) MEF, MEF^PERK−/− and MEF^GCN2−/− cells were treated with PG3 and ONC201 for 16 hours. (C) HT29 cells were transfected with siControl, siPKR, siHRI and siPKR/siHRI for 24 hours and then treated with PG3 for 16 hours. (D) HCT116 p53^−/− cells were transfected with siControl and siHRI for 24 hours and then treated with PG3 for 16 hours. (E) HCT116 p53^−/− cells were treated with PG3 and ONC201 for indicated times. (F) PANC1-sgCtrl, -sgHRI and -sgPKR cell lines were treated with PG3 and imipridones (ONC201, ONC206 and ONC212) for 16 hours. Western blot was performed using indicated antibodies. (G) Proposed model of PG3-induced cell apoptosis through HRI/ATF4/PUMA axis. Abbreviation: L.E.: Long exposure.\n(§1) After treatment, protein lysates were collected for Western blot analysis. A total of 15 μg of protein was used for SDS-PAGE. After primary and secondary antibody incubations, the signal was detected by a chemiluminescence detection kit, imaged by Syngene (Imgen Technologies). Antibodies for NAG-1 (GDF15) and P53 were from Santa Cruz Biotechnology; for caspase 8, cleaved caspase 8, caspase 9, caspase 3, cleavage PARP, eIF2α, p-eIF2α (Ser51), CHOP, ATF4, DR5, and PUMA were from Cell Signaling Technology. Noxa and p21 were from Calbiochem. Ran was from BD Biosciences.\nSupplementary Figure 2: ROS and NO are not responsible for PG3-induced HRI activation. (A, B) cells were pre-treated\nwith ZnPP, L-NMMA, SA and NAC for 2 hours respectively, and then ONC201 or PG3 was added to the medium for 24 hour treatment.\nWestern blot was performed using indicated antibodies.\n(1 picture or pasted object on this page, not shown here)"}, "p21": {"system": "p21", "test": "Western blot, p21 induction", "conditions": "HCT116 (p53 wild-type), 24 h", "experimental": "(§2) Figure 4 Activation of ATF4 and up-regulation of typical p53 target genes. (A–E) Western blot analysis of p53 protein levels and upregulation of ATF4, PUMA, DR5 and p21. Cells were treated for 24 h with indicated compounds, concentrations and cell lines. Abbreviations: S.E.: Short exposure; L.E.: Long exposure.\nas §1"}, "ATF4": {"system": "ATF4", "test": "Western blot, ATF4 induction", "conditions": "five cancer cell lines, 24 h", "experimental": "as §2, §1"}, "p53 protein": {"system": "p53 protein", "test": "Western blot, p53 protein levels", "experimental": "Cells were treated for 24 h with indicated compounds, concentrations and cell lines. Abbreviations: S.E.: Short exposure; L.E.: Long exposure.\nas §1"}, "PUMA": {"system": "PUMA", "test": "Western blot, PUMA induction", "conditions": "HCT116 (p53 wild-type), 24 h", "experimental": "as §2, §1"}, "DR5": {"system": "DR5", "test": "Western blot, DR5 induction", "conditions": "five cell lines, 24 h", "experimental": "as §2, §1"}, "HCT116 (WT)": {"system": "HCT116 (WT)", "test": "Cell viability assay (CellTiterGlo), HCT116 WT", "conditions": "p53 wild-type HCT116, 6.67 μM", "experimental": "(§3) Figure 1 PG3 inhibits cell proliferation and growth in a p53-indepent manner. (A–E) Cell viability assay, dose response curves and IC50 value measurements in a panel of cancer cell lines and normal cells. Cells were treated with different concentrations of PG3, PG3-Oc (Oc), obatoclax (Ob), prodigiosin (P) or DMSO for 72 h. Luciferase activity was imaged by the IVIS Imaging System after treatment. Cell viability data were normalized to those of DMSO treatment control in each cell line and data analyses were performed using PRISM4 software. IC50 data are expressed as the mean ±SD (normal; n = 3).\nas §3, with “2 p53-dependent inhibition of” for “1 PG3 inhibits”, “is only observed at specific concentrations. (A–J)” for “and growth in a p53-indepent manner. (A–E)”, “ZMC1, CP-313908, APR-246, Ellipticine, Nutalin-3a” for “PG3, PG3-Oc (Oc), obatoclax (Ob), prodigiosin (P)”\n(§4) Cells were seeded in 96-well plates (6 × 10^3 cells/well). Cells were treated with different concentrations of compounds or dimethyl sulfoxide (DMSO) as a control for 72 hours. The cell viability was assessed by CellTiterGlo bioluminescent cell viability assay (Promega), following the manufacturer’s protocol. Bioluminescence imaging was measured using the IVIS imager. The percentage of cell viability (mean ± SEM) at each dose was calculated against the respective DMSO control. The IC50 values were determined from the sigmoidal dose-response curves using GraphPad Prism."}, "[2]": {"system": "HT29, TOV-112D, isogenic HCT116 cell lines, HFF-1 and MRC5", "test": "Cell viability assay, panel of cancer cell lines and normal cells (results in words)", "experimental": "as §3, with “2 p53-dependent inhibition of” for “1 PG3 inhibits”, “is only observed at specific concentrations. (A–J)” for “and growth in a p53-indepent manner. (A–E)”, “ZMC1, CP-313908, APR-246, Ellipticine, Nutalin-3a” for “PG3, PG3-Oc (Oc), obatoclax (Ob), prodigiosin (P)”\nas §4"}, "[3]": {"system": "cleaved caspase-8, -3, cleaved PARP and PUMA in HT29, SW480 and HCT116 p53−/− cells", "test": "Western blot, apoptosis markers in PG3-treated cells", "conditions": "co-treatment with PG3; HT29, SW480, HCT116 p53–/–", "experimental": "Figure 5 PG3 induces apoptosis in p53-null and p53-mutant cancer cell lines. (A–E) Dose-response and time-course analysis of cleavage of caspase-8, -3, cleaved PARP and PUMA in PG3-treated HT29, SW480 and HCT116 p53^−/− cells by western blot using the indicated antibodies. (F–H) Flowcytometry analysis of cell death. (I) HT29 and HT29-PUMA^−/− and (J) SW480 cells were co-treated with PG3 and pan-caspase inhibitor Z-VAD-fmk for 48 h. (K) HCT116 p53^−/− cell were co-treated with PG3 and Z-VAD-fmk for 24 hours.\nas §1"}},
  "note": "Peptide text beside a SMILES is read from it. * marks the point of attachment. Cbz = O=C(OCc1ccccc1)*; CH2F = FC*",
  "data": [
    {"smiles": "CC(=O)N[C@@H](CS)C(=O)O", "note": "[NAC, N-acetylcysteine]", "values": [
      {"measurement": "effect on PG3- or ONC201-induced upregulation of ATF4", "setting": "[1]", "result": "do not attenuate or block"}
    ]},
    {"smiles": "COc1ccc(C2=N[C@@H](c3ccc(Cl)cc3)[C@@H](c3ccc(Cl)cc3)N2C(=O)N2CCNC(=O)C2)c(OC(C)C)c1", "note": "[Nutlin-3a]", "values": [
      {"measurement": "upregulation of p21", "setting": "p21", "result": "significantly upregulates"},
      {"measurement": "upregulation of ATF4", "setting": "ATF4", "result": "do not upregulate ATF4"},
      {"measurement": "wild-type p53 protein level", "setting": "p53 protein; HCT116, 24 h", "result": "stabilizes"},
      {"measurement": "endogenous mutant p53 R273H protein level", "setting": "p53 protein; HT29, 24 h", "result": "no effects"},
      {"measurement": "endogenous mutant p53 R175H protein level", "setting": "p53 protein; TOV-112D, 24 h", "result": "no effects"},
      {"measurement": "exogenous mutant p53 R175H protein level", "setting": "p53 protein; engineered HCT116-R175H cells, 24 h", "result": "no effects"},
      {"measurement": "upregulation of PUMA", "setting": "PUMA", "result": "significantly upregulates"},
      {"measurement": "upregulation of DR5", "setting": "DR5", "result": "does not upregulate DR5"},
      {"measurement": "inhibition of viability", "setting": "HCT116 (WT)", "result": "selectively inhibits the viability"},
      {"measurement": "inhibitory activity", "setting": "[2]; HT29 and TOV-112D", "result": "shows inhibitory activity"},
      {"measurement": "effect on viability", "setting": "[2]; p53-null and p53 R175H HCT116, 6.67 μM", "result": "no significant effects"}
    ]},
    {"smiles": "COC(=O)C[C@H](NC(=O)[C@H](C)NC(=O)[C@@H](NC(=O)OCc1ccccc1)C(C)C)C(=O)CF", "note": "[Z-VAD-FMK] (Cbz-Val-Ala-Asp(OMe)-CH2F)", "values": [
      {"measurement": "effect on PG3-induced cleavage of PARP, caspase-8 and -3", "setting": "[3]", "result": "potently inhibits the cleavage of PARP, caspase-8, and -3"}
    ]},
    {"smiles": "C=CC1=C(C)c2cc3[n-]c(cc4nc(cc5[n-]c(cc1n2)c(C)c5C=C)C(C)=C4CCC(=O)O)c(CCC(=O)O)c3C.[Zn+2]", "note": "[ZnPP, Zinc protoporphyrin]", "values": [
      {"measurement": "effect on PG3- or ONC201-induced upregulation of ATF4", "setting": "[1]", "result": "do not attenuate or block"}
    ]}
  ]
}
